The record followed here is US20230220047A1, “PEPTIDES FOR TREATMENT OF SEPSIS AND CANCER” (NORWEGIAN UNIVERSITY OF SCIENCE AND TECHNOLOGY (NTNU), priority 2020, published 2023).

One data set deals with primary human monocytes. The experiment in a line: Confocal analysis of E. coli particle uptake by primary human monocytes. It is filed as cell-based. The settings on record: 3 μM, similar extent as P7-Pen. Here is the method:
Cells were pre-incubated with Pen or P7-Pen peptides, followed by addition of Alexa Fluor 488-labeled bioparticles for the times indicated (15, 30 or 45 min). Fluorescent bacteria particles were counted by spot-detection in Bitplane Imaris imaging software and used to calculate the number of particles per cell. […] Pre-incubation with 3 μM cytochalasin D (CytoD, and inhibitor of actin polymerization) inhibited uptake of E. coli to a similar extent as P7-Pen.
THP-1 cells, THP-1^cherry cells or human PBMC were seeded in 24-well glass-bottom plates (MatTek Corporation), 125,000 cells/well. The THP-1 cells were differentiated into macrophages with 60 ng/ml PMA for 72 h and thereafter rested for 48 h, whereas the PBMC were used the day after isolation. The P7-penatratin peptide or control peptide was added to the cells 30 min before stimulation at 15 μM concentration. If used, 3 μM cytochalasin D (CytoD) was added simultaneously. […] A spot detection mode in the Bitplan Imaris software was used to define individual phagosomes and cells were counted manually. […] Fluorescence voxel intensity of TRAM^cherry at the phagosome is also presented. Statistical significance was calculated in GraphPad Prism by One-way ANOVA Kruskal-Wallis multiple comparison test. […]

The subject of data set [1] is TLR4. As to the kind of experiment: Western blot of LPS signalling in THP-1 cells and primary human monocytes. It is filed as cell-based. The settings on record: data not shown. The protocol:
(§1) Protein pellets were dissolved by heating protein pellets for 10 min at 95° C. in buffer containing 4 M urea, 1 SDS (Sigma) and NuPAGE® LDS Sample Buffer (4×) (Thermo Fisher Scientific). Otherwise, lysates were made using 1× RIPA lysis buffer (150 mM NaCl, 50 mM TrisHCl (pH 7.5), 1% Triton X100, 5 mM EDTA, protease inhibitors, phosphatase inhibitors). For Western blot analysis we used pre-cast protein gels NuPAGE™ Novex™ and iBlot Transfer Stacks iBlot Gel Transfer Device (Thermo Fisher Scientific). Proteins were transferred to the membrane by dry-blotting using iBlot® 2 NC Regular/Mini Stacks (Life Technologies) in the iBlot 2 Dry Blotting System (Life Technologies). After secondary antibody incubation, membranes were washed and incubated with HRP substrate solution (SuperSignal™ West Femto Maximum Sensitivity Substrate (Thermo Fisher Scientific)). Images were taken using Odyssey® Fc (LI-CORE). Quantification graphs were generated by the analysis of signal intensities for protein bands (protein of interest and endogenous loading control—β-tubulin from the same membrane) using Odyssey software (LI-CORE). Data were normalised to the expression levels of β-tubulin and presented as a relative fold change to the control sample.
Further, we tested the effect of P7-Pen on phosphorylation of p38 MAPK, IκBα degradation and modification of IRAK1 in human macrophages (THP-1 cells) and primary human monocytes. P7-Pen inhibited LPS-mediated phosphorylation of p38 MAPK (FIG. 24A) and inhibited IRAK1 ubiquitination/phosphorylation (visualised as band shift to higher molecular weight) in primary monocytes (FIG. 24B).

Data set [2] concerns ANBL-6 multiple myeloma cells. The experiment in a line: CellTiter-Glo cell viability assay, ANBL-6. It is filed as cell-based. The settings on record: 20 μM, 48 h. Here is the method: Minor effects on the proliferation of the IH-1 and RPMI 8226 cell lines are seen. Cells were seeded at the level shown (left-hand bar of each set) then incubated in medium containing water, 10 μM penetratin or 10 μM P7-A4-Pen for 48 hr (except for INA-6 cells, which were incubated with 12.5 μM penetratin or 12.5 μM P7-A4-Pen). The number of viable cells was detected based on quantitation of ATP by luminescent signal in correlation to a standard curve prepared for each cell line. Results are based on 3-5 biological replicates for each condition, error bars show standard deviation of mean.
Cells were seeded and then incubated in growth medium alone or supplemented with water, DMSO, 15 μM penetratin or 15 μM investigational peptide. The growth medium only and H2O—, DMSO- and penetratin-supplemented cultures constituted controls.
The solid horizontal lines show the amount of cells originally seeded. In (A) ANBL-6 cells were seeded at a level of 10,000 cells/well, then incubated in medium supplemented with water, the control peptide C3A-Pen, P7-Pen, P7-A4-Pen, P7-N4-Pen or P7-K2-Pen for 48 hours. The peptides were included at concentrations of 5, 10, 12.5, 15, 20 or 30 μM. Cells were counted at 48 hours. In (B), ANBL-6 cells were seeded at a level of 5000 cells/well, then incubated in medium supplemented with water, P6-Pen, P-P6-Pen, P7-D4-Pen or P7-A4-Pen for 48 hours. Peptides were included at concentrations of 5, 10 or 20 μM. Cells were counted at 48 hours. […] Results are based on 3 biological replicates, error bars show standard deviation of mean.
Multiple myeloma cells JJN-3 (DSMZ (Germany) no. ACC 541), ANBL-6 (Cellosaurus accession number CVCL_5425, obtained from Dr Diane Jelinek, Mayo Clinic, Rochester, Minn.), INA-6 (Cellosaurus accession number CVCL_5209, obtained from Dr M. Gramatzki, University of Erlangen-Nurnberg, Erlangen, Germany), RPMI-8226 (ATCC CCL-155), and IH-1 (Cellosaurus accession number CVCL_WZ44, established from the pleural effusion of a myeloma patient by Myeloma research group, IKOM, NTNU, Trondheim, Norway) were grown in RPMI-1640 (Sigma-Aldrich Norway, Oslo, Norway) supplemented with 100 nM penicillin/streptomycin and 10% FCS, and for ANBL-6, IH-1 and INA-6 cells 2 ng/ml recombinant IL-6 (Gibco, Thermo Fisher Scientific, Waltham, Mass., USA). Murine multiple myeloma Vk*MYC cells were obtained from M.D. Leif Bergsagel (Mayo Clinic, Richester, Minn., USA) and cultured in RPMI-1640 supplemented with 2% human serum (B^+, The blood bank, St Olav's Hospital, Trondheim, Norway), 100 nM penicillin/streptomycin, L-Glutamine (2 mM) and recombinant IL-6 (1 ng/ml). HEK293T (ATCC CRL-3216) were cultured in DMEM with 10% FCS. THP-1 TRAM knockout (KO) and TLR4 KO cell lines, and matching lentivirally transduced control cell lines, were differentiated in the same way as wild type (WT) THP-1. TRAM KO THP-1 cell line is described in Yurchenko et al. (supra).
To evaluate the potential impact of the P7 peptide on proliferation of tumour cells of lymphoid origin, we performed a CellTiter-Glo Luminescent Cell Viability Assay to address proliferation of several multiple myeloma (MM) cell lines. For the assay, cells were incubated for 48 h in respective media containing either solvent (water), 10 μM control peptide (Pen) or the SLAMF1-derived peptide P7-A4-Pen for 48 h (FIG. 32) (with the exception of the INA-6 cells which were incubated with 12.5 μM control peptide or P7-A4-Pen). […] This effect could be mediated by P7-A4-Pen-induced inhibition of signalling pathways that are crucial for driving proliferation and/or survival of MM tumour cells.
(ATP-based viability assays read luminescence as a measure of living cells.)

The target in another data set is T1, SLAMF1-TRAM interaction (Homo sapiens, UniProt Q86XR7).
T1 construct: expressed in transfected cells; host or cells: HEK-293T
T1 sequence (Q86XR7 whole entry): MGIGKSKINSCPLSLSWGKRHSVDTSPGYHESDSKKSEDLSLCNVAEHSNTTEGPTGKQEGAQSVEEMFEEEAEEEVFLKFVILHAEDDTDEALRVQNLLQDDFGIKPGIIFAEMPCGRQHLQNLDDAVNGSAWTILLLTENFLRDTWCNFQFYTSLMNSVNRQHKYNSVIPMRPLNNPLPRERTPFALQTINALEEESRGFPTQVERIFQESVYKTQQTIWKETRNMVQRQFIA
The experiment in a line: Co-precipitation of SLAMF1 and TRAM^Flag in the presence of ECFP-tagged peptides. It counts as binding. The settings on record: N-terminal ECFP-tagged peptides, HEK-293T lysates, anti-Flag IP. An excerpt: (A) Western blot analysis of SLAMF1 and TRAM^Flag co-precipitated in the presence of CFP-tagged peptides. TRAM^Flag was precipitated from cell lysates on agarose beads and distributed across 15 tubes. […] Unbound proteins/peptides were removed by a washing step, and pecipitates analysed by WB (anti-Flag IPs). Reduced SLAMF1 binding to TRAM indicates inhibition of the TRAM/SLAMF1 interaction by the peptide. (B) Sequences of the peptides that were expressed as ECFP-tagged proteins (N-terminal ECFP). Peptides 4 and 5 are not shown and were not pursued.
HEK293T cells expressing Flag-tagged proteins were lysed using 1×lysis buffer (150 mM NaCl, 50 mM TrisHCl (pH 8.0), 1 mM EDTA, 1% NP40), supplemented with EDTA-free Complete Mini protease Inhibitor Cocktail Tablets and PhosSTOP phosphatase inhibitor cocktail from Roche, 50 mM NaF and 2 mM […] (Sigma). IPs were carried out by rotation of cell lysates at 4° C. for 2 h with anti-flag (M2) agarose (Sigma). Beads were washed 5 times with lysis buffer and heated for 5 min with 1×NuPAGE® LDS Sample Buffer (Thermo Fisher Scientific) before analysis of precipitates by Western blotting. […]
Inhibition of the TRAM-SLAMF1 interaction using SLAMF1-derived peptides was tested. For the first line of experiments, SLAMF1-derived peptides were co-expressed as N-terminal ECFP-tagged proteins together with SLAMF1 and TRAM^FLAG constructs in HEK-293T cells.

The subject of another data set is THP-1 cells. The experiment in a line: LDH cytotoxicity assay in THP-1 cells. The settings on record: CPP screen, 15 μM, 30 min pre-treatment, LPS 100 ng/ml.
Data set [3] has as its system TLR4. As to the kind of experiment: qPCR of TLR4-mediated cytokine expression in B6 immortalised murine macrophages. It is filed as cell-based, mouse. The settings on record: 10 μM, 1 h pre-treatment, LPS 100 ng/ml. The protocol:
Cells were pre-treated with 10 μM peptides in cell culture media for 1 h, and stimulated with LPS (100 ng/ml) for increasing lengths of time.
Immortalized bone-derived-macrophages (iBMDM) from wild type, Tram−/− or TIr4−/− C57BL/6 mice were maintained at 37° C. and 5% CO2 in DMEM supplemented with 10% FCS.
(§2) Total RNA was isolated from the cells using Qiazol reagent #79306 from QIAGEN, and chloroform extraction followed by purification on RNeasy Mini columns with DNAse digestion (Qiagen). cDNA was prepared using the Maxima First Strand cDNA Synthesis Kit for quantitative real-time polymerase chain reaction (RT-qPCR) (Thermo Fisher Scientific) according to the manufacturer's protocol. qPCR was performed using the PerfeCTa qPCR FastMix (Quanta Biosciences) in replicates and cycled in a StepOnePlus™ Real-Time PCR cycler. The following TaqMan® Gene Expression Assays (Applied Biosystems®) were used: IFNβ (Hs01077958_s1), TNF (Hs00174128_m1), TBP (Hs00427620_m1), CXCL10 (Hs01124251_g1), IL-6 (Hs00174131_m1) and IL-1β (Hs01555410_m1), for human cells; Ifnβ (Mm00439552_s1), Tnf (Mm00443258_m1), Tbp (Mm01277042_m1) and II-1β (Mm00434228_m1), for mouse cells. No RT controls were negative. The level of TBP mRNA was used for normalisation and results presented as relative expression compared to the control untreated sample. Relative expression was calculated using Pfaffl's mathematical model (Pfaffl, Nucleic Acids Research 29(9): e45, 2001). Results are presented as the mean and SD expression fold change for biological replicates relative to non-stimulated cells. Statistical significance was evaluated in GraphPad Prizm 5.03. Data distribution was assumed to be normal but this was not formally tested. The difference between the two groups was determined by two-tailed t test.
We proceeded with cellular assays to address the effect of peptide pre-treatment on TLR4-mediated cytokine expression in B6 immortalised murine macrophages (FIG. 13). Tested peptides had no cytotoxic effect on B6 murine macrophages (FIG. 13A).

A further data set deals with STAT1. As to the kind of experiment: Western blot of STAT1 phosphorylation in LPS-stimulated THP-1 cells. It is filed as cell-based, human. The settings on record: 15 μM, compared to control peptide. The protocol: as §1
(In western blotting, separated proteins are transferred to a membrane and probed.)

Data set [4] deals with TLR4. As to the kind of experiment: qPCR of LPS-mediated cytokine mRNA expression in THP-1 macrophages. The settings on record: 15 μM. It is filed as cell-based, human. Here is the method: SW480 (ATCC CCL-228) and Jurkat (ATCC Clone E6-1; TIB-152) cells were cultured in RPMI 1640 (Sigma-Aldrich, Schnelldorf, Germany) supplemented with 10% heat-inactivated FCS, penicillin/streptomycin (Life Technologies) and 20 mM L-Glutamine. THP-1 cells (ATCC TIB-202) were cultured in RPMI-1640 (high-glucose, ATCC) supplemented with 10% heat inactivated foetal calf serum (FCS), 100 nM penicillin/streptomycin and 5 μM β-mercaptoethanol (Sigma). THP-1 cells were differentiated with 60 ng/ml phorbol 12-myristate 13-acetate (PMA, Sigma) for 72 h, followed by 24 or 48 h in medium without PMA.
as §2

In the case of `C=C1[C@@H](C)[C@H]2[C@H](Cc3ccccc3)NC(=O)[C@]23[C@H](OC(C)=O)/C=C/[C@@](C)(O)C(=O)[C@@H](C)C/C=C/[C@H]3[C@@H]1O` [cytochalasin D, reference compound], the “uptake of E. coli” value with primary human monocytes was “inhibited”.
Consider “ITVYASVTATGRQIKIWFQNRRMKWKK (P7-A9-Pen) [Peptide P7-A9-Pen]”, for which, in the data set with TLR4 [1], the “pattern of inhibition of p38 MAPK phosphorylation and IRAK1 modification as seen with P7-Pen” value is “inactive”.
Regarding “P6: SEQ ID NO: 2; amino acid sequence of SLAMF1 positions 324-333 (ITVYASVTLP; listed as Homo sapiens) [Peptide P6]”, the “anti-proliferative activity at the highest tested concentration” value in data set [2] is on record as “moderate anti-proliferative”. Also, in the data set with SLAMF1-TRAM interaction, the “inhibitory effect on SLAMF1-TRAM co-precipitation” value is “highest efficacy”.
As for “Ac-ITVYASVTLTGKLALKLALKALKAALKLA-NH2 [Peptide P7-KLA]”, the “reduction of LPS-mediated toxicity (LDH assay)” value with THP-1 cells is on record as “most effective”. Besides, the “TLR4-mediated Ifnβ, Tnf and Il-1β mRNA expression” value with TLR4 [3] is reported as “strongly inhibited”.
For “TNSITVYASVTLTESGRRRRRRRRRRR (P3-Arg11) [Peptide P3-Arg11]”, in the data set on STAT1, the “phosphorylation of STAT1 upon LPS stimulation” value is on record as “no effect”. The “LPS-mediated cytokine mRNA expression” value with TLR4 [4] is on record as “not effective”.
